Organism: Rattus norvegicus
Experiment: DrugMatrix - Regimen: Daily Repeat
Format: toxicity, organism-based, Sprague-Dawley
Design: regimen Daily Repeat, gender Male, age 6-8 weeks
Conditions: in vivo, po, route oral GAVAGE, vehicle 100 % WATER; for ABSOLUTE BASOPHIL / ABSOLUTE EOSINOPHIL / ABSOLUTE LYMPHOCYTE / ABSOLUTE MONOCYTE / ABSOLUTE SEGMENTED NEUTROPHIL / BASOPHIL / EOSINOPHIL / ERYTHROCYTE COUNT / HEMATOCRIT / HEMOGLOBIN / LEUKOCYTE COUNT / LYMPHOCYTE / MEAN CORPUSCULAR HEMOGLOBIN / MEAN CORPUSCULAR HEMOGLOBIN CONCENTRATION / MEAN CORPUSCULAR VOLUME / MONOCYTE / NEUTROPHIL / NUCLEATED RED BLOOD CELLS / PLATELET COUNT: tissue Blood; for ALANINE AMINOTRANSFERASE / ALBUMIN / ALKALINE PHOSPHATASE / ASPARTATE AMINOTRANSFERASE / BLOOD UREA NITROGEN / CARBON DIOXIDE / CHLORIDE / CHOLESTEROL / CREATINE PHOSPHOKINASE / CREATININE / GLUCOSE / LACTATE DEHYDROGENASE / LIPASE / PHOSPHORUS / POTASSIUM / SODIUM / TOTAL BILIRUBIN / TOTAL PROTEIN / URIC ACID: tissue Plasma
[1] = 48 mg/kg, 72 h, dose level High, time 3 day
[2] = 48 mg/kg, 120 h, dose level High, time 5 day
[3] = […], 72 h, dose 3.2 mg/Kg, dose level Low, time 3 day
[4] = […], 120 h, dose 3.2 mg/Kg, dose level Low, time 5 day

In the case of `O=C(c1ccccc1)c1ccc2n1CCC2C(=O)O` (configuration not stated) [KETOROLAC], the “ABSOLUTE BASOPHIL” value [1] is reported as 0 CELLS/uL, the “ABSOLUTE EOSINOPHIL” value [1] is reported as 209.67 CELLS/uL and the “ABSOLUTE LYMPHOCYTE” value [1] is reported as 27063 CELLS/uL. The “ABSOLUTE MONOCYTE” value [1] was 1382.33 CELLS/uL, the “ABSOLUTE SEGMENTED NEUTROPHIL” value [1] was 3145 CELLS/uL and the BASOPHIL [1] was 0%. The EOSINOPHIL [1] was 0.67%, the “ERYTHROCYTE COUNT” value [1] was 3.97 x10E6/uL and the HEMATOCRIT [1] was 23.77%. The HEMOGLOBIN [1] was 9.13 G/DL, the “LEUKOCYTE COUNT” value [1] was 31.8 x10E3/uL and the LYMPHOCYTE [1] was 85%. The “MEAN CORPUSCULAR HEMOGLOBIN” value [1] was 23.5 pg, the “MEAN CORPUSCULAR HEMOGLOBIN CONCENTRATION” value [1] was 38.6 G/DL and the “MEAN CORPUSCULAR VOLUME” value [1] was 60.83 fL. The MONOCYTE [1] was 4.33%, the NEUTROPHIL [1] was 10% and the “NUCLEATED RED BLOOD CELLS” value [1] was 0.33 /100WBC. The “PLATELET COUNT” value [1] was 1452.33 x10E3/uL, the “ALANINE AMINOTRANSFERASE” value [1] was 19.67 u/L and the ALBUMIN [1] was 3.1 G/DL. For the same compound, the “ALKALINE PHOSPHATASE” value [1] was 170.33 u/L, the “ASPARTATE AMINOTRANSFERASE” value [1] was 55.33 u/L and the “BLOOD UREA NITROGEN” value [1] was 14 mg/dL. The “CARBON DIOXIDE” value [1] was 24 mmol/L, the CHLORIDE [1] was 105.33 MEQ/L and the CHOLESTEROL [1] was 64.67 mg/dL. For the same compound, the “CREATINE PHOSPHOKINASE” value [1] was 293 u/L, the CREATININE [1] was 0.19 mg/dL and the GLUCOSE [1] was 170 mg/dL. The “LACTATE DEHYDROGENASE” value [1] was 145.33 u/L, the LIPASE [1] was 7.67 u/L and the PHOSPHORUS [1] was 12.67 mg/dL. The POTASSIUM [1] was 7.45 MEQ/L, the SODIUM [1] was 144.47 MEQ/L and the “TOTAL BILIRUBIN” value [1] was 0.13 mg/dL. The “TOTAL PROTEIN” value [1] was 5.17 G/DL, the “URIC ACID” value [1] was 3 mg/dL and the “ABSOLUTE BASOPHIL” value [2] was 0 CELLS/uL. The “ABSOLUTE EOSINOPHIL” value [2] was 0 CELLS/uL, the “ABSOLUTE LYMPHOCYTE” value [2] was 14525.25 CELLS/uL and the “ABSOLUTE MONOCYTE” value [2] was 548.5 CELLS/uL. For the same compound, the “ABSOLUTE SEGMENTED NEUTROPHIL” value [2] was 4876.25 CELLS/uL, the BASOPHIL [2] was 0% and the EOSINOPHIL [2] was 0%. The “ERYTHROCYTE COUNT” value [2] was 4.52 x10E6/uL, the HEMATOCRIT [2] was 27.15% and the HEMOGLOBIN [2] was 10.4 G/DL. The “LEUKOCYTE COUNT” value [2] was 19.95 x10E3/uL, the LYMPHOCYTE [2] was 76.25% and the “MEAN CORPUSCULAR HEMOGLOBIN” value [2] was 23.03 pg. For the same compound, the “MEAN CORPUSCULAR HEMOGLOBIN CONCENTRATION” value [2] was 38.32 G/DL, the “MEAN CORPUSCULAR VOLUME” value [2] was 60.12 fL and the MONOCYTE [2] was 3.25%. For the same compound, the NEUTROPHIL [2] was 20.5%, the “NUCLEATED RED BLOOD CELLS” value [2] was 0.5 /100WBC and the “PLATELET COUNT” value [2] was 2011.5 x10E3/uL. For the same compound, the “ALANINE AMINOTRANSFERASE” value [2] was 73.25 u/L, the ALBUMIN [2] was 2.58 G/DL and the “ALKALINE PHOSPHATASE” value [2] was 411.75 u/L. The “ASPARTATE AMINOTRANSFERASE” value [2] was 294 u/L, the “BLOOD UREA NITROGEN” value [2] was 25.5 mg/dL and the “CARBON DIOXIDE” value [2] was 25.25 mmol/L. The CHLORIDE [2] was 102 MEQ/L, the CHOLESTEROL [2] was 70.5 mg/dL and the “CREATINE PHOSPHOKINASE” value [2] was 1478 u/L. For the same compound, the CREATININE [2] was 0.18 mg/dL, the GLUCOSE [2] was 115.25 mg/dL and the “LACTATE DEHYDROGENASE” value [2] was 533.75 u/L. The LIPASE [2] was 13.5 u/L, the PHOSPHORUS [2] was 13.42 mg/dL and the POTASSIUM [2] was 7.39 MEQ/L. The SODIUM [2] was 142.23 MEQ/L, the “TOTAL BILIRUBIN” value [2] was 0.18 mg/dL and the “TOTAL PROTEIN” value [2] was 5.4 G/DL. The “URIC ACID” value [2] was 2.45 mg/dL, the “ABSOLUTE BASOPHIL” value [3] was 0 CELLS/uL and the “ABSOLUTE EOSINOPHIL” value [3] was 59.33 CELLS/uL. For the same compound, the “ABSOLUTE LYMPHOCYTE” value [3] was 7885.33 CELLS/uL, the “ABSOLUTE MONOCYTE” value [3] was 273 CELLS/uL and the “ABSOLUTE SEGMENTED NEUTROPHIL” value [3] was 682.33 CELLS/uL. The BASOPHIL [3] was 0%, the EOSINOPHIL [3] was 0.67% and the “ERYTHROCYTE COUNT” value [3] was 5.54 x10E6/uL. For the same compound, the HEMATOCRIT [3] was 36.1%, the HEMOGLOBIN [3] was 13.73 G/DL and the “LEUKOCYTE COUNT” value [3] was 8.9 x10E3/uL. The LYMPHOCYTE [3] was 88.67%, the “MEAN CORPUSCULAR HEMOGLOBIN” value [3] was 24.83 pg and the “MEAN CORPUSCULAR HEMOGLOBIN CONCENTRATION” value [3] was 38.07 G/DL. For the same compound, the “MEAN CORPUSCULAR VOLUME” value [3] was 65.27 fL, the MONOCYTE [3] was 3% and the NEUTROPHIL [3] was 7.67%. The “NUCLEATED RED BLOOD CELLS” value [3] was 0 /100WBC, the “PLATELET COUNT” value [3] was 1257 x10E3/uL and the “ALANINE AMINOTRANSFERASE” value [3] was 47.67 u/L. For the same compound, the ALBUMIN [3] was 4.6 G/DL, the “ALKALINE PHOSPHATASE” value [3] was 439.67 u/L and the “ASPARTATE AMINOTRANSFERASE” value [3] was 96 u/L. The “BLOOD UREA NITROGEN” value [3] was 11.33 mg/dL, the “CARBON DIOXIDE” value [3] was 32.33 mmol/L and the CHLORIDE [3] was 102.5 MEQ/L. For the same compound, the CHOLESTEROL [3] was 64.67 mg/dL, the “CREATINE PHOSPHOKINASE” value [3] was 218 u/L and the CREATININE [3] was 0.17 mg/dL. For the same compound, the GLUCOSE [3] was 144.33 mg/dL, the “LACTATE DEHYDROGENASE” value [3] was 103.33 u/L and the LIPASE [3] was 9.33 u/L. It also gave a PHOSPHORUS [3] of 11.4 mg/dL, a POTASSIUM [3] of 6 MEQ/L and an SODIUM [3] of 148.9 MEQ/L. The “TOTAL BILIRUBIN” value [3] was 0.0667 mg/dL, the “TOTAL PROTEIN” value [3] was 6.63 G/DL and the “URIC ACID” value [3] was 0.43 mg/dL. The “ABSOLUTE BASOPHIL” value [4] was 0 CELLS/uL, the “ABSOLUTE EOSINOPHIL” value [4] was 0 CELLS/uL and the “ABSOLUTE LYMPHOCYTE” value [4] was 9946 CELLS/uL. The “ABSOLUTE MONOCYTE” value [4] was 214 CELLS/uL, the “ABSOLUTE SEGMENTED NEUTROPHIL” value [4] was 540 CELLS/uL and the BASOPHIL [4] was 0%. For the same compound, the EOSINOPHIL [4] was 0%, the “ERYTHROCYTE COUNT” value [4] was 6.18 x10E6/uL and the HEMATOCRIT [4] was 38.5%. The HEMOGLOBIN [4] was 14.07 G/DL, the “LEUKOCYTE COUNT” value [4] was 10.7 x10E3/uL and the LYMPHOCYTE [4] was 93%. For the same compound, the “MEAN CORPUSCULAR HEMOGLOBIN” value [4] was 22.77 pg, the “MEAN CORPUSCULAR HEMOGLOBIN CONCENTRATION” value [4] was 36.63 G/DL and the “MEAN CORPUSCULAR VOLUME” value [4] was 62.23 fL. For the same compound, the MONOCYTE [4] was 2%, the NEUTROPHIL [4] was 5% and the “NUCLEATED RED BLOOD CELLS” value [4] was 0 /100WBC. For the same compound, the “PLATELET COUNT” value [4] was 1155 x10E3/uL, the “ALANINE AMINOTRANSFERASE” value [4] was 40 u/L and the ALBUMIN [4] was 4.43 G/DL. For the same compound, the “ALKALINE PHOSPHATASE” value [4] was 422.33 u/L, the “ASPARTATE AMINOTRANSFERASE” value [4] was 70.67 u/L and the “BLOOD UREA NITROGEN” value [4] was 14.67 mg/dL. For the same compound, the “CARBON DIOXIDE” value [4] was 33.67 mmol/L, the CHLORIDE [4] was 102 MEQ/L and the CHOLESTEROL [4] was 81 mg/dL. The “CREATINE PHOSPHOKINASE” value [4] was 512.33 u/L, the CREATININE [4] was 0.16 mg/dL and the GLUCOSE [4] was 169.33 mg/dL. The “LACTATE DEHYDROGENASE” value [4] was 125 u/L, the LIPASE [4] was 9 u/L and the PHOSPHORUS [4] was 13.57 mg/dL. For the same compound, the POTASSIUM [4] was 6.98 MEQ/L, the SODIUM [4] was 147.2 MEQ/L and the “TOTAL BILIRUBIN” value [4] was 0.2 mg/dL. For the same compound, the “TOTAL PROTEIN” value [4] was 6.37 G/DL and the “URIC ACID” value [4] was 1.83 mg/dL.

From ChEMBL document CHEMBL3885881, “DrugMatrix”
